Assay results from PubChem BioAssay (NCI).
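A five-concentration, 48-hour dose response in 96-well plates underlies each endpoint, interpolated linearly between surrounding concentrations. Definition used: TGI = concentration required for complete inhibition of growth.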 Where a SMILES comes first, the peptide text is derived from it. [ ]: non-standard residue; d: D form. The star is where a group is joined. ξ: configuration not given here. X37 = O=C(OCc1ccccc1)[C@@H]1CCC[C@H]1N*; Fmoc = O=C(OCC1c2ccccc2-c2ccccc21)*; ξW = NC(Cc1c[nH]c2ccccc12)C(=O)O; ξF = NC(Cc1ccccc1)C(=O)O; Boc = CC(C)(C)OC(=O)*; ξK = NCCCCC(N)C(=O)O; ξT = CC(O)C(N)C(=O)O; tBu = CC(C)(C)*

Assays:
Experiment in all cases: growth of human tumour cells (NCI), 48 h
SNB-75 CNS = system: SNB-75 CNS
SF-539 CNS = system: SF-539 CNS
SK-MEL-28 melanoma = system: SK-MEL-28 melanoma
PC-3 prostate = system: PC-3 prostate
SK-MEL-2 melanoma = system: SK-MEL-2 melanoma
HCT-116 colon = system: HCT-116 colon
HOP-92 NSCLC = system: HOP-92 NSCLC
KM12 colon = system: KM12 colon
NCI/ADR-RES ovarian = system: NCI/ADR-RES ovarian
EKVX NSCLC = system: EKVX NSCLC
OVCAR-3 ovarian = system: OVCAR-3 ovarian
IGROV1 ovarian = system: IGROV1 ovarian
SW-620 colon = system: SW-620 colon

SMILES | TGI (SNB-75 CNS) [µM] | TGI (SF-539 CNS) [µM] | TGI (SK-MEL-28 melanoma) [µM] | TGI (PC-3 prostate) [µM] | TGI (SK-MEL-2 melanoma) [µM] | TGI (HCT-116 colon) [µM] | TGI (HOP-92 NSCLC) [µM] | TGI (KM12 colon) [µM] | TGI (NCI/ADR-RES ovarian) [µM] | TGI (EKVX NSCLC) [µM] | TGI (OVCAR-3 ovarian) [µM] | TGI (IGROV1 ovarian) [µM] | TGI (SW-620 colon) [µM]
Cc1ccc(S(=O)(=O)OC2CN3CCC2CC3)cc1 (configuration not stated) | > 100 | > 100 | > 100 | > 100 | > 100 | > 100 | > 100 | > 100 | > 100 | > 100 | > 100 | > 100 | > 100
CCOC(=O)Cc1csc(/N=C\c2c(O)c3ccccc3oc2=O)n1 | 56.7 | 56.7 | > 100 | > 100 | 40.4 | > 100 | 47.3 | > 100 | 64 | > 100 | 77.1 | > 100 | > 100
Cc1cn2c(/C=C3/C(=O)Nc4ccccc43)c(-c3ccccc3)nc2s1 | 66.8 | 41.7 | > 100 | > 100 | 78.1 | > 100 | > 100 | > 100 | > 100 | > 100 | > 100 | > 100 | > 100
CC(=O)OCc1ccc(-c2nc(C#N)c(N)o2)o1 | > 10 | > 10 | > 10 | > 10 |  | > 10 | > 10 | > 10 | > 10 | > 10 |  | > 10 | > 10
CC(C)(C)[C@@H]1NC(=O)CN1C(=O)OCc1ccccc1 | > 100 | > 100 | > 100 | > 100 | > 100 | > 100 | > 100 | > 100 | > 100 | > 100 |  | > 100 | > 100
COC(=O)C1Cc2c([nH]c3ccccc23)-c2[nH]c3ccccc3c2CC(NC(C)=O)C(=O)NCC(=O)N1 (configuration not stated) | > 100 | > 100 | > 100 | > 100 | > 100 | > 100 | > 100 | > 100 | > 100 | > 100 | > 100 | > 100 | > 100
CC1(C)OC1CC/C(=C/CBr)CBr (configuration not stated) | 21 | 32.2 | 31.5 | 29.3 | 29 | 33 | 29.4 | 29.9 | 49.6 | 33.3 | 33.7 | 27.3 | 28.7
CC(OC(C)(C)C)C(NC(=O)C(CCCCNC(=O)OC(C)(C)C)NC(=O)C(Cc1c[nH]c2ccccc12)NC(=O)C(Cc1ccccc1)NC(=O)OCC1c2ccccc2-c2ccccc21)C(=O)NC(Cc1ccccc1)C(=O)N[C@@H]1CCC[C@H]1C(=O)OCc1ccccc1 (some centres not stated) (Fmoc-[ξF][ξW][ξK](Boc)[ξT](tBu)[ξF]-X37) | > 100 | > 100 | > 100 | > 100 | > 100 | > 100 | > 100 | > 100 | > 100 | > 100 | > 100 | > 100 | > 100
CCOc1ccc(N=NC2C(=O)N(C(=O)CC(=O)Nc3ccc(Cl)cc3)N=C2C)cc1 (configuration not stated) | > 100 | > 100 | > 100 | > 100 | > 100 | > 100 | > 100 | > 100 | > 100 | > 100 | > 100 | > 100 | > 100
COc1ccc(N(C(=O)OC(C)(C)C)[C@@H]2C(C)=C[C@H]([S@@](=O)c3ccc(C)cc3)[C@@H]3C(=O)N(C)C(=O)[C@@H]32)cc1 | 21.4 | 43.5 | 41.3 | > 100 | 39.3 | 35.9 | 61.5 | 30.5 | 52.1 | 9.85 | 80.8 | 23.1 | 45.5
NC12c3c4cccc3Oc3cccc(c31)Oc1cccc(c12)O4 | > 50 | > 50 | > 50 | > 50 | > 50 | > 50 | > 50 | > 50 | > 50 | > 50 | > 50 | > 50 | > 50
OC1(c2ccc(Cl)cc2)c2ccccc2C2=Nc3ccccc3CN21 (configuration not stated) | 44 | > 100 | 98.3 | > 100 | > 89.6 | 19 | > 100 | > 75.4 | 98.8 | > 81.6 | 9.77 | > 81.3 | > 100
COC(=O)c1ccc(/C=C/C2=CC(=O)C=CC2=O)cc1 | 99.4 | 45.6 | 50.8 | 60.6 | > 62.1 | 29.6 | 32.7 | 31.6 | 97.9 | 47.5 | 38.4 | 39.1 | 48
CCC(C#N)N(Cc1cccc(CN(C(C)=O)C(C#N)CC)c1)C(C)=O (configuration not stated) | > 100 | > 100 |  | > 100 | > 100 | > 100 | > 100 | > 100 | > 100 | > 100 | > 100 | > 100 | > 100
CC(C)C[C@H](NC(=O)[C@@H](Cc1cccc2ccccc12)NC(=O)N1CCOCC1)B(O)O | 18.8 | 4.61 | 6.92 | 24.9 | 13.1 | 5.94 | 8.55 | 20 | > 100 | 47.6 | 6.69 | 23.5 | 12.2
COc1ccc(OC)c2c1C[C@@H]1C(C#N)N3[C@H](Cc4c(OC)ccc(OC)c4[C@@H]3C)C(=O)N1[C@H]2C (some centres not stated) | 5.02 | 5.97 | 10.1 | 11.7 | 5.2 | 11.8 | 5.37 | 8.21 | > 100 | 20.5 | 5.2 | 16.8 | 8.41
Cc1cc(SCC(=O)c2ccc(Br)cc2)cc(C)[o+]1 | 56.9 | 44.5 | 42.9 | > 100 | 76 | 65.7 | 74.8 | 62.6 | 88.3 | 39.9 | 49.8 | > 100 | > 100
